US9328118B2, “Nitrogen-containing bicyclic aromatic heterocyclic compound” (ASTELLAS PHARMA INC., priority 2012, dated 2016)
Structures can show the parent of a compound that is named as a salt.

Biological target: human cathepsin S (Homo sapiens (Human), UniProt P25774)
Experiment: In vitro human cathepsin S inhibitory activity (VVR-AMC fluorescence)
Assay type: biochemical
Conditions: human cathepsin S enzyme, substrate VVR-AMC 40 μM, pH 4.5, 37° C.; read-out: IC50 value of the human cathepsin S inhibitory activity (Data 1)
Description: Test Example 1 Measurement of a In Vitro Human Cathepsin S Inhibitory Activity
5 μL of a human cathepsin S enzyme (R&D1183-CY-010) was added to a 96-well plate so as to be 20 ng/well. […] A reaction rate at the time of not adding an enzyme in which the test compound was not added and a reaction rate at the time of adding an enzyme in which the test compound was not added were set to 100% inhibition and 0% inhibition, respectively, then, an inhibition rate at each concentration was determined, and IC50 values were calculated by a linear regression method. In the Table, Ex represents Example compound No., and Data 1 represents an IC50 value (nM) of the human cathepsin S inhibitory activity.

Sequence of human cathepsin S (P25774 115-331): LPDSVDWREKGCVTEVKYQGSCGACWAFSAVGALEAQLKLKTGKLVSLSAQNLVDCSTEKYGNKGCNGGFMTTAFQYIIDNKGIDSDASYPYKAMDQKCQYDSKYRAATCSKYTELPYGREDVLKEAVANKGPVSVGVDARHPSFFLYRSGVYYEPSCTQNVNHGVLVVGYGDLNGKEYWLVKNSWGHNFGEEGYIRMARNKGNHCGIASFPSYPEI

SMILES | IC50
CCOc1ccc(-c2nc(C#N)nc3c2ccn3CC(=O)N2CCN(C)CC2)cc1C(F)(F)F [Example 5, 4-[4-ethoxy-3-(trifluoromethyl)phenyl]-7-[2-(4-methylpiperazin-1-yl)-2-oxoethyl]-7H-pyrrolo[2,3-d]pyrimidine-2-carbonitrile] | 4.2 nM
CN(C)C(=O)N1CCC(CCOc2ccc(-c3nc(C#N)nc4c3ncn4C)cc2C(F)(F)F)CC1 [Example 7, 4-{2-[4-(2-cyano-9-methyl-9H-purin-6-yl)-2-(trifluoromethyl)phenoxy]ethyl}-N,N-dimethylpiperidine-1-carboxamide] | 6.2 nM
CN1CCN(C(=O)Cn2ccc3c(-c4ccc(OCCC5CCOCC5)c(C(F)(F)F)c4)nc(C#N)nc32)CC1 [Example 8, 7-[2-(4-methylpiperazin-1-yl)-2-oxoethyl]-4-{4-[2-(tetrahydro-2H-pyran-4-yl)ethoxy]-3-(trifluoromethyl)phenyl}-7H-pyrrolo[2,3-d]pyrimidine-2-carbonitrile monohydrochloride] | 1.6 nM
Cc1nc2c(-c3ccc(OCCC4CCNCC4)c(C(F)(F)F)c3)nc(C#N)nc2n1C [Example 10, 8,9-dimethyl-6-{4-[2-(piperidin-4-yl)ethoxy]-3-(trifluoromethyl)phenyl}-9H-purine-2-carbonitrile monohydrochloride] | 2.7 nM
CCN1CCC(CCOc2ccc(-c3nc(C#N)nc4c3nc(C)n4C)cc2C(F)(F)F)CC1 [Example 11, 6-{4-[2-(1-ethylpiperidin-4-yl)ethoxy]-3-(trifluoromethyl)phenyl}-8,9-dimethyl-9H-purine-2-carbonitrile] | 1.9 nM
CCN1CCCC(CCOc2ncc(-c3nc(C#N)nc4c3ccn4C)cc2C(F)(F)F)C1 (centres unmarked) [Example 12, 4-{6-[2-(1-ethylpiperidin-3-yl)ethoxy]-5-(trifluoromethyl)pyridin-3-yl}-7-methyl-7H-pyrrolo[2,3-d]pyrimidine-2-carbonitrile monohydrochloride] | 2.7 nM

Continued, values first:

IC50 | SMILES
2.7 nM | CCN1CCC(CCOc2ccc(-c3nc(C#N)nc4c3ccn4CCOC)cc2C(F)(F)F)CC1 [Example 13, 4-{4-[2-(1-ethylpiperidin-4-yl)ethoxy]-3-(trifluoromethyl)phenyl}-7-(2-methoxyethyl)-7H-pyrrolo[2,3-d]pyrimidine-2-carbonitrile monohydrochloride]
2.3 nM | Cn1ccc2c(-c3ccc(OCCC4CCN(C5CC5)CC4)c(C(F)(F)F)c3)nc(C#N)nc21 [Example 14, 4-{4-[2-(1-cyclopropylpiperidin-4-yl)ethoxy]-3-(trifluoromethyl)phenyl}-7-methyl-7H-pyrrolo[2,3-d]pyrimidine-2-carbonitrile]
4.7 nM | CN(C)C(=O)CN1CCC(CCOc2ccc(-c3nc(C#N)nc4c3ccn4CC3CCCO3)cc2C(F)(F)F)CC1 (centres unmarked) [Example 16, 2-[4-(2-{4-[2-cyano-7-(tetrahydrofuran-2-ylmethyl)-7H-pyrrolo[2,3-d]pyrimidin-4-yl]-2-(trifluoromethyl)phenoxy}ethyl)piperidin-1-yl]-N,N-dimethylacetamide monohydrochloride]
4.5 nM | Cn1ccc2c(-c3ccc(OCCC4C5CCC4CNC5)c(C(F)(F)F)c3)nc(C#N)nc21 (centres unmarked) [Example 38]
1.5 nM | CN1CCC(CCOc2ncc(-c3nc(C#N)nc4c3ncn4C)cc2C(F)(F)F)CC1 [Example 136, 9-methyl-6-{6-[2-(1-methylpiperidin-4-yl)ethoxy]-5-(trifluoromethyl)pyridin-3-yl}-9H-purine-2-carbonitrile]
2.7 nM | Cn1cnc2c(-c3cnc(OCCC4CCN(C(=O)[C@@H]5CCCN5)CC4)c(C(F)(F)F)c3)nc(C#N)nc21 [Example 138]
2.1 nM | CC(C)N1CCC(CCOc2ncc(-c3nc(C#N)nc4c3ncn4C)cc2C(F)(F)F)CC1 [Example 139]
1.5 nM | Cn1cnc2c(-c3cnc(OCCC4CCN5CCCC5C4)c(C(F)(F)F)c3)nc(C#N)nc21 (centres unmarked) [Example 142]
